≈ marks a conversion by molar mass, not a printed value. Calls of active or inactive are those of the source. The calls are words filed in the database; no cut-off is given here.
Columns and labels:
[1] = target: Acetylcholinesterase (Electrophorus electricus, UniProt O42275); assay: Inhibition of electric eel AChE using acetylthiocholine iodide as substrate preincubated for 20 mins followed by substrate addition and measured after 10 mins by DTNB-reagent based Ellman's method
[2] = target: T1, Cholinesterase (Equus caballus, UniProt P81908); assay: Inhibition of equine serum BuChE using butyrylthiocholine iodide as substrate preincubated for 20 mins followed by substrate addition and measured after 10 mins by DTNB based Ellman's method
T1 sequence (P81908 whole entry): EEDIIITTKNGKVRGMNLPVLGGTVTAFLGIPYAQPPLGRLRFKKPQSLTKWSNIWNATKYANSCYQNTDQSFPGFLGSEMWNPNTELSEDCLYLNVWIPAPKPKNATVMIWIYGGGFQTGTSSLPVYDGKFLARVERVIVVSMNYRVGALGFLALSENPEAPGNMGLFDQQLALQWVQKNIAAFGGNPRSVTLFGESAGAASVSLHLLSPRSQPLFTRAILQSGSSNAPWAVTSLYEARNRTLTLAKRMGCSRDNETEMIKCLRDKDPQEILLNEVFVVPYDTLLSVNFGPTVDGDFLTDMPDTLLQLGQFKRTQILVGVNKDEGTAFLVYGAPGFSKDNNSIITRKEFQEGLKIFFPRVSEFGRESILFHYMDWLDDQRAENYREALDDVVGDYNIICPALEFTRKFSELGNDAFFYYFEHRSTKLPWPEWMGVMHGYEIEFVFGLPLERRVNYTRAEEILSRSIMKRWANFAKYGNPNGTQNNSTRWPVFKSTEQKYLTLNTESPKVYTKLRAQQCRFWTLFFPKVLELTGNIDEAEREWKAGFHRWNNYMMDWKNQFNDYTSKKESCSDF

[3] = target: Acetylcholinesterase (Electrophorus electricus) (UniProt O42275); assay: Inhibition of electric eel AChE using acetylthiocholine iodide as substrate at 20 uM preincubated for 20 mins followed by substrate addition and measured after 10 mins by DTNB-reagent based Ellman's method relative to control; conditions: time 30.0 min
Sequence of Acetylcholinesterase (Electrophorus electricus) (O42275 24-633 limits assumed): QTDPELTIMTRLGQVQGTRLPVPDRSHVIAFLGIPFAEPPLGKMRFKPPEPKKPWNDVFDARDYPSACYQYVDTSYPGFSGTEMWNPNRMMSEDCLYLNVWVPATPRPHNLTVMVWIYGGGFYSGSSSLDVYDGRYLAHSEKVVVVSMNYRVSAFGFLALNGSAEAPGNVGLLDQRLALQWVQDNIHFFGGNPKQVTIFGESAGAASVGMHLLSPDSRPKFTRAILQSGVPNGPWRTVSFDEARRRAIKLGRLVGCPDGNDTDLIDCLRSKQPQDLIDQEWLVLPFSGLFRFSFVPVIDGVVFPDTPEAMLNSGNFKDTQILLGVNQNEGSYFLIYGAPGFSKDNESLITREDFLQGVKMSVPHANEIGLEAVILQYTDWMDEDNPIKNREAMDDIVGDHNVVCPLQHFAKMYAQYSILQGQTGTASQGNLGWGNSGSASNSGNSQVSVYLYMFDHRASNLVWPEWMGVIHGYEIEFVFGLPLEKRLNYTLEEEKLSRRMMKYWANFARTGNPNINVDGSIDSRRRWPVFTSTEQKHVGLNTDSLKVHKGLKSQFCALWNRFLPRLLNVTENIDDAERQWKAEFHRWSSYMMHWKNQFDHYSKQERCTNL

[4] = target: T1, Cholinesterase
Description: Binding affinity to equine BChE in phosphate buffer at pH 8 assessed as equilibrium dissociation constant by SPR analysis

[5] = target: T2, serum albumin (Homo sapiens, UniProt P02768); assay: Binding affinity to human serum albumin assessed as residence time by SPR analysis; format: ADME
T2 sequence (P02768 whole entry): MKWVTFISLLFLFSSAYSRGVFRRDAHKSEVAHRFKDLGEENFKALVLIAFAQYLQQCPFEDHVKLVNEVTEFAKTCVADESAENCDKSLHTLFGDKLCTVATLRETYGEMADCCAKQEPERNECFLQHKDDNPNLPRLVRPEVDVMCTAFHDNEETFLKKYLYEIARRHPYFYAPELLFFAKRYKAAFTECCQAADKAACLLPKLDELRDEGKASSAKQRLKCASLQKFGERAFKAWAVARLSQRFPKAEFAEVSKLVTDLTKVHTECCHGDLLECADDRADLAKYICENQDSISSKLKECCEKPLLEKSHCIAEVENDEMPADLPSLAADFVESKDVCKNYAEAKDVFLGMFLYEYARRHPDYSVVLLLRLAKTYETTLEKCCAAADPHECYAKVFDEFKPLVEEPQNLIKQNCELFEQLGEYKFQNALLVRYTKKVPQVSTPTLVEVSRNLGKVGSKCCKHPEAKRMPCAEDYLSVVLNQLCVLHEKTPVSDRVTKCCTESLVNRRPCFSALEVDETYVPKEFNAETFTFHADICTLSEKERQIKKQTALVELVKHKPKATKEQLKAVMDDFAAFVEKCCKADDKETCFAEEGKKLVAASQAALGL

[6] = target: T2, serum albumin; assay: Binding affinity to human serum albumin assessed as dissociation rate constant (Koff) by SPR analysis; format: ADME; conditions: read-out: K
[7] = target: Albumin (Homo sapiens, UniProt P02768); assay: Binding affinity to human serum albumin assessed as equilibrium dissociation constant by SPR analysis; format: ADME
Sequence of Albumin (P02768 whole entry): as above

[8] = Aqueous solubility of compound in phosphate buffered solution at pH 7.4 incubated for 1 hr under shaking condition by HPLC analysis; format: physicochemical
[9] = target: T1, Cholinesterase; assay: Mixed-type inhibition of equine serum BChE using varying concentrations of butyrylthiocholine iodide as substrate assessed as inhibition constant by Lineweaver-Burk plot analysis
[10] = tested on: SH-SY5Y; assay: Protection against NMDA-induced cytotoxicity in human SH-SY5Y cells assessed as increase in cell viability at 1 uM incubated for 24 hrs by MTT assay; format: functional, cell-based
[11] = tested on: equine serum BuChE; assay: Selectivity ratio of IC50 for cytotoxicity against human SH-SY5Y cells to IC50 for inhibition of equine serum BuChE using butyrylthiocholine iodide as substrate; format: toxicity, cell-based; conditions: probe butyrylthiocholine iodide, read-out: Ratio IC50
[12] = Antioxidant activity assessed as ROS scavenging activity relative to control; format: functional
[13] = target: Acetylcholinesterase (Homo sapiens) (UniProt P22303); assay: Inhibition of human AChE using acetylthiocholine iodide as substrate at 20 uM preincubated for 20 mins followed by substrate addition and measured after 10 mins by DTNB-reagent based Ellman's method relative to control; conditions: time 30.0 min
Sequence of Acetylcholinesterase (Homo sapiens) (P22303 whole entry): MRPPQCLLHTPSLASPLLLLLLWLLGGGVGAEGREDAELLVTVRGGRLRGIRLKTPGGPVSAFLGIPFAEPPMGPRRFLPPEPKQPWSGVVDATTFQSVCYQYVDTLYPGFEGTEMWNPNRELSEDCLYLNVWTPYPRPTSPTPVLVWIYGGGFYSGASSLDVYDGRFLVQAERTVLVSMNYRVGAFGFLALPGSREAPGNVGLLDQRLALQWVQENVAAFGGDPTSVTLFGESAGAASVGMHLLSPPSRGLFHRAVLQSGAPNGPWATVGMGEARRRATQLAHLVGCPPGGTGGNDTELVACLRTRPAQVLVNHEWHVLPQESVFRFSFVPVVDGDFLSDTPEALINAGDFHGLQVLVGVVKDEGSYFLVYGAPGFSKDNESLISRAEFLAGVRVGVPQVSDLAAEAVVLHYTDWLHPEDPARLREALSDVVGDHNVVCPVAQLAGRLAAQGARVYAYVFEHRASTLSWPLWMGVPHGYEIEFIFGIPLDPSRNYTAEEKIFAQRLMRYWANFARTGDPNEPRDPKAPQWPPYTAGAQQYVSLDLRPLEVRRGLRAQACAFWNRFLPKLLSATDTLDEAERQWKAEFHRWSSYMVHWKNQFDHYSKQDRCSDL

[14] = target: Cholinesterase (Equus caballus) (UniProt P81908); assay: Mixed-type inhibition of equine serum BChE using varying concentrations of butyrylthiocholine iodide as substrate assessed as change in Km and Vmax at 0.05 to 0.5 uM by Lineweaver-Burk plot analysis; conditions: dose 0.05-0.5 µM
Sequence of Cholinesterase (Equus caballus) (P81908 whole entry): as the sequence (P81908 whole entry) above

[15] = target: Amyloid-beta precursor protein (Homo sapiens) (UniProt P05067); assay: Inhibition of self induced amyloid-beta (1 to 40) (unknown origin) aggregation at 100 uM incubated for 2 hrs by ThT fluorescence based spectrofluorimetric analysis relative to control
Sequence of Amyloid-beta precursor protein (Homo sapiens) (P05067 whole entry): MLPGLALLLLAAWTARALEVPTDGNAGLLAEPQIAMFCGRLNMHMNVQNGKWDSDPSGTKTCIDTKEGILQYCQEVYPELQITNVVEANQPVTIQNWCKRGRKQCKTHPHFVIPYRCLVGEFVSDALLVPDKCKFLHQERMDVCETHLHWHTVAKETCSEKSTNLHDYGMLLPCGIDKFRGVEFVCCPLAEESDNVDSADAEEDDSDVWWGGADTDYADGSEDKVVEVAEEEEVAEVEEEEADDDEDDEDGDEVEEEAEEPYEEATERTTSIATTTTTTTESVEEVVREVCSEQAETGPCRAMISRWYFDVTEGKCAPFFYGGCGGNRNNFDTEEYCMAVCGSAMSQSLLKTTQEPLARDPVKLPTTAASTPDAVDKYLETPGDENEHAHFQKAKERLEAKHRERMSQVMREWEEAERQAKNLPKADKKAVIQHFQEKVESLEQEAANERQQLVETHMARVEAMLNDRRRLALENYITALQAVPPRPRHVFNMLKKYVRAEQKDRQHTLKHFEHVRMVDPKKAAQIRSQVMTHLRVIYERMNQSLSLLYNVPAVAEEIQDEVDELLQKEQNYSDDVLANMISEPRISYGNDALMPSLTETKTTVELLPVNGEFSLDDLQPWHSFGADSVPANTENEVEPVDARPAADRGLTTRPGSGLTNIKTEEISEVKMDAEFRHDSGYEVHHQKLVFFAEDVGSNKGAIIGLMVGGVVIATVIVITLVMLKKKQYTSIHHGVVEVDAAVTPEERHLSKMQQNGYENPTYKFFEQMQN

[16] = Cytotoxicity against human SH-SY5Y cells assessed as reduction in cell viability incubated for 24 hrs by MTT assay; format: toxicity, cell-based
[17] = tested on: SH-SY5Y; assay: Protection against NMDA-induced cytotoxicity in human SH-SY5Y cells assessed as increase in cell viability at 5 to 20 uM incubated for 24 hrs by MTT assay; format: functional, cell-based; conditions: dose 5-20 µM
[18] = tested on: SH-SY5Y; assay: Cytoprotective activity against H2O2-induced oxidative stress in human SH-SY5Y cells assessed as increase in cell viability at 20 uM incubated for 24 hrs by MTT assay; format: functional, cell-based
[19] = target: T3, Cholinesterase (Homo sapiens, UniProt P06276); assay: Inhibition of human BuChE using butyrylthiocholine iodide as substrate preincubated for 20 mins followed by substrate addition and measured after 10 mins by DTNB based Ellman's method
T3 sequence (P06276 whole entry): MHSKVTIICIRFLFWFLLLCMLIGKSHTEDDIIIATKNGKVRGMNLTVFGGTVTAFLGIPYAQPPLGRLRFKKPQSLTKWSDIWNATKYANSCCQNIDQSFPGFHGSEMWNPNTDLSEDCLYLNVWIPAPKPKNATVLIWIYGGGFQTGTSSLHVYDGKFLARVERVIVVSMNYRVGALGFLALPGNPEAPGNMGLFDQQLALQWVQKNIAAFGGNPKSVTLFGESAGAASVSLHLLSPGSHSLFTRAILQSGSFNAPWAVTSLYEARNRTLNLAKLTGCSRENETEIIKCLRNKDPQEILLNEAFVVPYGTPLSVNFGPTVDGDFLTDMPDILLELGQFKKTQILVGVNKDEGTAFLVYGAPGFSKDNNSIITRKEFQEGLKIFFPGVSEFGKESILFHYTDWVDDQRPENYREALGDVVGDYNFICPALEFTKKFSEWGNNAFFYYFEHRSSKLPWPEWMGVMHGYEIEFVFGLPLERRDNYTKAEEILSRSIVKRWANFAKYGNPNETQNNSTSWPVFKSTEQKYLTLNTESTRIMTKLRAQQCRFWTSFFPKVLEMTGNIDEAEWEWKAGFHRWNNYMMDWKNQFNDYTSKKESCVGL

[20] = tested on: SH-SY5Y; assay: Cytoprotective activity against H2O2-induced oxidative stress in human SH-SY5Y cells assessed as increase in cell viability at 100 uM incubated for 24 hrs by MTT assay; format: functional, cell-based
[21] = target: Cholinesterase (Equus caballus) (UniProt P81908); assay: Inhibition of equine serum BuChE using butyrylthiocholine iodide as substrate at 20 uM preincubated for 20 mins followed by substrate addition and measured after 10 mins by DTNB based Ellman's method relative to control; conditions: time 30.0 min
[22] = target: T3, Cholinesterase; assay: Inhibition of BChE (unknown origin) at 10 uM relative to control
[23] = target: Acetylcholinesterase (Homo sapiens) (UniProt P22303); assay: Inhibition of AChE (unknown origin) at 10 uM relative to control
[24] = target: Amyloid-beta precursor protein (Homo sapiens) (UniProt P05067); assay: Inhibition of amyloid beta (unknown origin) aggregation at 100 uM relative to control
[25] = tested on: SH-SY5Y; assay: Cytoprotective activity against H2O2-induced oxidative stress in human SH-SY5Y cells assessed as increase in cell viability incubated for 24 hrs by MTT assay; format: functional, cell-based

Sequence of Acetylcholinesterase (O42275 whole entry): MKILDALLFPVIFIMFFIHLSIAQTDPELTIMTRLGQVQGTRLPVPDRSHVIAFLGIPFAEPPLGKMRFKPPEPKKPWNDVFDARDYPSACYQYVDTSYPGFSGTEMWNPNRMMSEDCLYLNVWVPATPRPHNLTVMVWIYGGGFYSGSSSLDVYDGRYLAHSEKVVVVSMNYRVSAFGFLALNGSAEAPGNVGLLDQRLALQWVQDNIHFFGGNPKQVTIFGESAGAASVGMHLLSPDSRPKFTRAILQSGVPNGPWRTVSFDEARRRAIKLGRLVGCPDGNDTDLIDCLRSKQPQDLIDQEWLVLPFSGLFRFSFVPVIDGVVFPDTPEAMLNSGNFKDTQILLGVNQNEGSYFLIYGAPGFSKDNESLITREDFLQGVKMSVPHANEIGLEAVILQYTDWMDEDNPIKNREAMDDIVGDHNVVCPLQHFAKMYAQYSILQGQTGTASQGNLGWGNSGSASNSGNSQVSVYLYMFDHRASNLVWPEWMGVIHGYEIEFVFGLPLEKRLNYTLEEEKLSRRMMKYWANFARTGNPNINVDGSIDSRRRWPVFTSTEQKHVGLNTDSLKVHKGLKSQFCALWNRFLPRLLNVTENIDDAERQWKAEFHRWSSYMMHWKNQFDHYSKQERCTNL

O=C1NCCCc2c1c1ccccc1n2CCCCCCCN1CCN(Cc2ccccc2)CC1
IC50 [1]: 402 nM | IC50 [2]: 396 nM

O=C1NCCCc2c1c1ccccc1n2CCCCCN1CCN(Cc2ccncc2)CC1
IC50 [2]: 1920 nM | inhibition [3]: 2%

O=C1NCCCc2c1c1ccccc1n2CCCCCCCN1CCN(c2ccccc2)CC1
Kd [4]: 759 nM | residence time [5]: 0.25 min | koff [6]: 0.069 s⁻¹ | IC50 [2]: 765 nM | inhibition [3]: 17% | Kd [7]: 1640 nM

O=C1NCCCc2c1c1ccccc1n2CCCCN1CCN(Cc2ccccc2)CC1
IC50 [1]: 1480 nM | IC50 [2]: 2640 nM

O=C1NCCCc2c1c1ccccc1n2CCCCCCCN1CCN(CCc2ccccc2)CC1
Kd [4]: 62 nM | solubility at 1 h [8]: 6.1 µg/mL (≈ 12.5 µM) | IC50 [1]: 5900 nM | Ki [9]: 27 nM | residence time [5]: 0.1 min | Activity [10]: Active | selectivity ratio [11]: 800 | Activity [12]: < 10% | koff [6]: 0.151 s⁻¹ | IC50 [2]: 65 nM | inhibition [13]: 39% | inhibition [14]: Active | inhibition [15]: 62% | Kd [7]: 3530 nM | IC50 at 24 h [16]: 60000 nM | Activity [17]: inactive | Activity [18]: inactive | IC50 [19]: 72 nM

O=c1c(O)c(-c2ccc(O)c(O)c2)oc2cc(O)cc(O)c12
Activity [20]: Active

O=C1NCCCc2c1c1ccccc1n2CCCCCCCN1CCN(c2ccccc2F)CC1
IC50 [1]: 4940 nM | IC50 [2]: 906 nM

O=C1NCCCc2c1c1ccccc1n2CCN1CCN(Cc2ccccc2)CC1
IC50 [1]: 6570 nM | IC50 [2]: 6590 nM | inhibition [15]: 13%

O=C1NCCCc2c1c1ccccc1n2CCCCCN1CCN(c2ccccc2F)CC1
IC50 [2]: 1000 nM | inhibition [3]: 35%

O=C1NCCCc2c1c1ccccc1n2CCCCN1CCN(CCc2ccccc2)CC1
IC50 [2]: 528 nM | inhibition [15]: 21% | inhibition [3]: 36%

O=C1NCCCc2c1c1ccccc1n2CCCCCN1CCN(c2ccccn2)CC1
IC50 [2]: 717 nM | inhibition [3]: 13%

O=C1NCCCc2c1c1ccccc1n2CCCCCCCN1CCN(c2ccc(F)cc2)CC1
IC50 [2]: 10000 nM | inhibition [3]: 10%

CN1CCN(CCCCCn2c3c(c4ccccc42)C(=O)NCCC3)CC1
inhibition [21]: 20% | inhibition [3]: 20%

CC(C)NCCCn1c2c(c3ccccc31)C(=O)NCCC2
inhibition [22]: < 40% | inhibition [23]: < 40% | inhibition [24]: 50%

O=C1NCCCc2c1c1ccccc1n2CCCCCCCN1CCN(Cc2ccncc2)CC1
IC50 [1]: 7060 nM | IC50 [2]: 1860 nM

O=C1NCCCc2c1c1ccccc1n2CCN1CCN(CCc2ccccc2)CC1
IC50 [2]: 5790 nM | inhibition [15]: 55% | inhibition [3]: 8%

O=C1NCCCc2c1c1ccccc1n2CCCCCCCN1CCN(Cc2cccnc2)CC1
IC50 [2]: 466 nM | inhibition [3]: 40%

CN1CCN(CCCCCCCn2c3c(c4ccccc42)C(=O)NCCC3)CC1
IC50 [1]: 15000 nM | IC50 [2]: 10000 nM

O=C1NCCCc2c1c1ccccc1n2CCCCCN1CCN(Cc2ccccc2)CC1
IC50 [1]: 1830 nM | IC50 [2]: 430 nM | inhibition [15]: 28%

O=C1NCCCc2c1c1ccccc1n2CCCCCN1CCN(c2ccc(F)cc2)CC1
IC50 [2]: 1780 nM | inhibition [3]: 28%

O=C1NCCCc2c1c1ccccc1n2CCCCCN1CCN(c2ccccc2)CC1
IC50 [2]: 5520 nM | inhibition [3]: 31%

O=C1NCCCc2c1c1ccccc1n2CCCCCN1CCN(Cc2cccnc2)CC1
IC50 [2]: 4920 nM | inhibition [3]: 37%

O=C1NCCCc2c1c1ccccc1n2CCc1ccccc1
residence time [5]: 1 min | inhibition [24]: < 40% | koff [6]: 0.017 s⁻¹ | Kd [7]: 850 nM

O=C1NCCCc2c1c1ccccc1n2CCCCCN1CCN(CCc2ccccc2)CC1
Kd [4]: 148 nM | solubility at 1 h [8]: 169 µg/mL (≈ 368 µM) | residence time [5]: 0.183 min | Activity [10]: Active | selectivity ratio [11]: 500 | Activity [12]: < 10% | koff [6]: 0.092 s⁻¹ | IC50 [2]: 163 nM | inhibition [13]: 20% | inhibition [15]: 14% | EC50 [25]: ~1500 nM | Activity ([25]; dose 1-20 µM): Dose-Dependent Effect | inhibition [3]: 39% | Kd [7]: 6700 nM | IC50 at 24 h [16]: 88000 nM | Activity [17]: inactive | IC50 [19]: 190 nM

O=C1NCCCc2c1c1ccccc1n2CCCCCCCN1CCN(c2ccccn2)CC1
IC50 [1]: 9100 nM | IC50 [2]: 2100 nM

— ChEMBL document CHEMBL5500348, “Novel 6-alkyl-bridged 4-arylalkylpiperazin-1-yl derivatives of azepino[4,3-b]indol-1(2H)-one as potent BChE-selective inhibitors showing protective effects against neurodegenerative insults” (Eur J Med Chem, 2024)
